Experimental data taken from PubChem BioAssay (NCI).
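Where inhibition never reached the appropriate level, the endpoint shown equals the highest concentration tested. Otherwise, values were interpolated linearly from a five-concentration, 48-hour dose response in 96-well plates. GI50: concentration for 50% inhibition of growth. At the TGI there is no net growth.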

Key:
Assay in all cases: growth of human tumour cells (NCI), 48 h
SK-MEL-2 melanoma = test system: SK-MEL-2 melanoma
HOP-62 NSCLC = test system: HOP-62 NSCLC
UACC-257 melanoma = test system: UACC-257 melanoma
SK-OV-3 ovarian = test system: SK-OV-3 ovarian
MCF7 breast = test system: MCF7 breast
T-47D breast = test system: T-47D breast
SF-295 CNS = test system: SF-295 CNS
IGROV1 ovarian = test system: IGROV1 ovarian
SF-268 CNS = test system: SF-268 CNS
SK-MEL-28 melanoma = test system: SK-MEL-28 melanoma
786-0 renal = test system: 786-0 renal
TK-10 renal = test system: TK-10 renal
SW-620 colon = test system: SW-620 colon
HCT-116 colon = test system: HCT-116 colon
HT29 colon = test system: HT29 colon
K-562 leukemia = test system: K-562 leukemia
SK-MEL-5 melanoma = test system: SK-MEL-5 melanoma
LOX IMVI melanoma = test system: LOX IMVI melanoma
SNB-75 CNS = test system: SNB-75 CNS
ACHN renal = test system: ACHN renal
SN12C renal = test system: SN12C renal
DU-145 prostate = test system: DU-145 prostate
COLO 205 colon = test system: COLO 205 colon
CAKI-1 renal = test system: CAKI-1 renal
SF-539 CNS = test system: SF-539 CNS
M14 melanoma = test system: M14 melanoma
EKVX NSCLC = test system: EKVX NSCLC
U251 CNS = test system: U251 CNS
UACC-62 melanoma = test system: UACC-62 melanoma
HS 578T breast = test system: HS 578T breast
NCI-H23 lung = test system: NCI-H23 lung
MALME-3M melanoma = test system: MALME-3M melanoma
OVCAR-8 ovarian = test system: OVCAR-8 ovarian
PC-3 prostate = test system: PC-3 prostate
HOP-92 NSCLC = test system: HOP-92 NSCLC
OVCAR-3 ovarian = test system: OVCAR-3 ovarian
NCI-H226 lung = test system: NCI-H226 lung
OVCAR-4 ovarian = test system: OVCAR-4 ovarian
MDA-MB-435 = test system: MDA-MB-435
UO-31 renal = test system: UO-31 renal
MDA-MB-231 breast = test system: MDA-MB-231 breast
SR leukemia = test system: SR leukemia
HL-60(TB) leukemia = test system: HL-60(TB) leukemia
A498 renal = test system: A498 renal
NCI-H460 lung = test system: NCI-H460 lung
CCRF-CEM leukemia = test system: CCRF-CEM leukemia
RPMI-8226 leukemia = test system: RPMI-8226 leukemia
RXF 393 renal = test system: RXF 393 renal
HCT-15 colon = test system: HCT-15 colon
KM12 colon = test system: KM12 colon
MOLT-4 leukemia = test system: MOLT-4 leukemia
NCI-H522 lung = test system: NCI-H522 lung
A549 NSCLC = test system: A549 NSCLC
SNB-19 CNS = test system: SNB-19 CNS
OVCAR-5 ovarian = test system: OVCAR-5 ovarian
HCC-2998 colon = test system: HCC-2998 colon
BT-549 breast = test system: BT-549 breast
NCI/ADR-RES ovarian = test system: NCI/ADR-RES ovarian

For `CN(C)CCOc1ccccc1NC1=C(Cl)C(=O)C(Nc2ccccc2OCCN(C)C)=C(Cl)C1=O`, the GI50 (SK-MEL-2 melanoma) was 19.2 µM, the TGI (SK-MEL-2 melanoma) was over 57 µM and the GI50 (HOP-62 NSCLC) was 39.1 µM. It also gave a TGI (HOP-62 NSCLC) of over 100 µM, a TGI (UACC-257 melanoma) of over 41.1 µM and a GI50 (SK-OV-3 ovarian) of over 47.7 µM. For the same compound, the TGI (SK-OV-3 ovarian) was over 83.1 µM, the GI50 (MCF7 breast) was 0.51 µM and the TGI (MCF7 breast) was 1.18 µM. For the same compound, the GI50 (T-47D breast) was 0.811 µM, the TGI (T-47D breast) was 3.16 µM and the GI50 (SF-295 CNS) was over 38.4 µM. The TGI (SF-295 CNS) was over 65.9 µM, the GI50 (IGROV1 ovarian) was 0.636 µM and the TGI (IGROV1 ovarian) was 1.48 µM. The GI50 (SF-268 CNS) was 9.76 µM, the TGI (SF-268 CNS) was 36.3 µM and the GI50 (SK-MEL-28 melanoma) was over 95 µM. The TGI (SK-MEL-28 melanoma) was over 100 µM, the GI50 (786-0 renal) was 1.64 µM and the TGI (786-0 renal) was 5.92 µM. The GI50 (TK-10 renal) was 5.73 µM, the TGI (TK-10 renal) was 12.4 µM and the GI50 (SW-620 colon) was 0.566 µM. For the same compound, the TGI (SW-620 colon) was 1.24 µM, the GI50 (HCT-116 colon) was 0.518 µM and the TGI (HCT-116 colon) was 1.01 µM. It also gave a GI50 (HT29 colon) of 0.83 µM, a TGI (HT29 colon) of 3.5 µM and a GI50 (K-562 leukemia) of 2.26 µM. It also gave a TGI (K-562 leukemia) of 5.41 µM, a TGI (SK-MEL-5 melanoma) of over 23.8 µM and a GI50 (LOX IMVI melanoma) of 0.592 µM. It also gave a TGI (LOX IMVI melanoma) of 1.25 µM, a GI50 (SNB-75 CNS) of over 39.4 µM and a TGI (SNB-75 CNS) of over 82.1 µM. The GI50 (ACHN renal) was 0.494 µM, the TGI (ACHN renal) was 1.6 µM and the GI50 (SN12C renal) was 0.573 µM. It also gave a TGI (SN12C renal) of 1.21 µM, a GI50 (DU-145 prostate) of 6.64 µM and a GI50 (COLO 205 colon) of 1.78 µM. It also gave a TGI (COLO 205 colon) of 3.77 µM, a GI50 (CAKI-1 renal) of 1.14 µM and a TGI (CAKI-1 renal) of 2.36 µM. The GI50 (SF-539 CNS) was 16.4 µM, the TGI (SF-539 CNS) was over 48.3 µM and the GI50 (M14 melanoma) was over 27 µM. For the same compound, the TGI (M14 melanoma) was over 84.6 µM, the GI50 (EKVX NSCLC) was 5.33 µM and the TGI (EKVX NSCLC) was 19.1 µM. For the same compound, the GI50 (U251 CNS) was 10.2 µM, the TGI (U251 CNS) was 39.5 µM and the GI50 (UACC-62 melanoma) was over 34.1 µM. The TGI (UACC-62 melanoma) was over 49.3 µM, the GI50 (HS 578T breast) was 29.5 µM and the TGI (HS 578T breast) was over 83.1 µM. It also gave a GI50 (NCI-H23 lung) of 6.47 µM, a TGI (NCI-H23 lung) of 22.6 µM and a GI50 (MALME-3M melanoma) of 3.31 µM. It also gave a TGI (MALME-3M melanoma) of 12.8 µM, a GI50 (OVCAR-8 ovarian) of 4.16 µM and a TGI (OVCAR-8 ovarian) of 20.7 µM. It also gave a GI50 (PC-3 prostate) of 9.84 µM, a TGI (PC-3 prostate) of over 31.8 µM and a GI50 (HOP-92 NSCLC) of 1.45 µM. It also gave a TGI (HOP-92 NSCLC) of 3.07 µM, a GI50 (OVCAR-3 ovarian) of 0.444 µM and a TGI (OVCAR-3 ovarian) of 0.879 µM. It also gave a GI50 (NCI-H226 lung) of 23.6 µM, a TGI (NCI-H226 lung) of over 57.9 µM and a GI50 (OVCAR-4 ovarian) of 0.473 µM. For the same compound, the TGI (OVCAR-4 ovarian) was 0.896 µM, the GI50 (MDA-MB-435) was 9.42 µM and the TGI (MDA-MB-435) was over 40.6 µM. The GI50 (UO-31 renal) was 0.735 µM, the TGI (UO-31 renal) was 2.22 µM and the GI50 (MDA-MB-231 breast) was 2.21 µM. It also gave a TGI (MDA-MB-231 breast) of 6.61 µM, a GI50 (SR leukemia) of 5.12 µM and a TGI (SR leukemia) of over 100 µM. It also gave a GI50 (HL-60(TB) leukemia) of 0.658 µM, a TGI (HL-60(TB) leukemia) of 2.06 µM and a GI50 (A498 renal) of over 38.2 µM. It also gave a TGI (A498 renal) of over 53.8 µM, a GI50 (NCI-H460 lung) of 27.8 µM and a TGI (NCI-H460 lung) of over 96.4 µM. For the same compound, the GI50 (CCRF-CEM leukemia) was 0.966 µM, the GI50 (RPMI-8226 leukemia) was over 100 µM and the TGI (RPMI-8226 leukemia) was over 100 µM. It also gave a GI50 (RXF 393 renal) of 3.93 µM, a TGI (RXF 393 renal) of 10.4 µM and a GI50 (HCT-15 colon) of 0.845 µM. For the same compound, the TGI (HCT-15 colon) was 2.61 µM, the GI50 (KM12 colon) was 20.9 µM and the TGI (KM12 colon) was over 100 µM. For the same compound, the GI50 (MOLT-4 leukemia) was 0.694 µM, the TGI (MOLT-4 leukemia) was 1.91 µM and the GI50 (NCI-H522 lung) was 0.502 µM. For the same compound, the TGI (NCI-H522 lung) was 1.14 µM, the GI50 (A549 NSCLC) was over 47.3 µM and the TGI (A549 NSCLC) was over 100 µM. For the same compound, the GI50 (SNB-19 CNS) was 24.9 µM, the TGI (SNB-19 CNS) was over 49.8 µM and the GI50 (OVCAR-5 ovarian) was 10.2 µM. It also gave a TGI (OVCAR-5 ovarian) of over 38.6 µM, a GI50 (HCC-2998 colon) of 5.74 µM and a TGI (HCC-2998 colon) of over 21.6 µM. The GI50 (BT-549 breast) was 20.7 µM, the TGI (BT-549 breast) was over 49.7 µM and the GI50 (NCI/ADR-RES ovarian) was 24.6 µM. It also gave a TGI (NCI/ADR-RES ovarian) of over 100 µM.
